In patent publication US20250340574A1, “MODULATORS OF CYSTIC FIBROSIS TRANSMEMBRANE CONDUCTANCE REGULATOR” (Vertex Pharmaceuticals Incorporated, priority 2022, published 2025):
Read-outs that look alike come from different tables or passages of the source.

What was measured:
[1] = amide bond, 13-membered ring, CDMT/NMM, DMF
[2] = biological target: T1, CFTR (F508del/MF-HBE cells) (Homo sapiens, UniProt P13569, DEL508-508); experiment: Ussing chamber assay of CFTR-mediated short-circuit currents, Assay A (0.1 μM to 25 μM, 6 concentrations); format: cell-based; conditions: with 33 nM potentiator and 18 μM Tezacaftor, 20% human serum; for Emax: 18-24 hours, read-out: A Max activity (%)
T1 construct: human bronchial epithelial (HBE) cells derived from CF subjects heterozygous for F508del and a minimal function CFTR mutation (F508del/MF-HBE); endogenous in cells; host or cells: Primary human bronchial epithelial cells from CF subjects (F508del/MF genotype), differentiated at an air-liquid interface
T1 sequence (P13569 with tags, fused parts or gaps DEL508-508): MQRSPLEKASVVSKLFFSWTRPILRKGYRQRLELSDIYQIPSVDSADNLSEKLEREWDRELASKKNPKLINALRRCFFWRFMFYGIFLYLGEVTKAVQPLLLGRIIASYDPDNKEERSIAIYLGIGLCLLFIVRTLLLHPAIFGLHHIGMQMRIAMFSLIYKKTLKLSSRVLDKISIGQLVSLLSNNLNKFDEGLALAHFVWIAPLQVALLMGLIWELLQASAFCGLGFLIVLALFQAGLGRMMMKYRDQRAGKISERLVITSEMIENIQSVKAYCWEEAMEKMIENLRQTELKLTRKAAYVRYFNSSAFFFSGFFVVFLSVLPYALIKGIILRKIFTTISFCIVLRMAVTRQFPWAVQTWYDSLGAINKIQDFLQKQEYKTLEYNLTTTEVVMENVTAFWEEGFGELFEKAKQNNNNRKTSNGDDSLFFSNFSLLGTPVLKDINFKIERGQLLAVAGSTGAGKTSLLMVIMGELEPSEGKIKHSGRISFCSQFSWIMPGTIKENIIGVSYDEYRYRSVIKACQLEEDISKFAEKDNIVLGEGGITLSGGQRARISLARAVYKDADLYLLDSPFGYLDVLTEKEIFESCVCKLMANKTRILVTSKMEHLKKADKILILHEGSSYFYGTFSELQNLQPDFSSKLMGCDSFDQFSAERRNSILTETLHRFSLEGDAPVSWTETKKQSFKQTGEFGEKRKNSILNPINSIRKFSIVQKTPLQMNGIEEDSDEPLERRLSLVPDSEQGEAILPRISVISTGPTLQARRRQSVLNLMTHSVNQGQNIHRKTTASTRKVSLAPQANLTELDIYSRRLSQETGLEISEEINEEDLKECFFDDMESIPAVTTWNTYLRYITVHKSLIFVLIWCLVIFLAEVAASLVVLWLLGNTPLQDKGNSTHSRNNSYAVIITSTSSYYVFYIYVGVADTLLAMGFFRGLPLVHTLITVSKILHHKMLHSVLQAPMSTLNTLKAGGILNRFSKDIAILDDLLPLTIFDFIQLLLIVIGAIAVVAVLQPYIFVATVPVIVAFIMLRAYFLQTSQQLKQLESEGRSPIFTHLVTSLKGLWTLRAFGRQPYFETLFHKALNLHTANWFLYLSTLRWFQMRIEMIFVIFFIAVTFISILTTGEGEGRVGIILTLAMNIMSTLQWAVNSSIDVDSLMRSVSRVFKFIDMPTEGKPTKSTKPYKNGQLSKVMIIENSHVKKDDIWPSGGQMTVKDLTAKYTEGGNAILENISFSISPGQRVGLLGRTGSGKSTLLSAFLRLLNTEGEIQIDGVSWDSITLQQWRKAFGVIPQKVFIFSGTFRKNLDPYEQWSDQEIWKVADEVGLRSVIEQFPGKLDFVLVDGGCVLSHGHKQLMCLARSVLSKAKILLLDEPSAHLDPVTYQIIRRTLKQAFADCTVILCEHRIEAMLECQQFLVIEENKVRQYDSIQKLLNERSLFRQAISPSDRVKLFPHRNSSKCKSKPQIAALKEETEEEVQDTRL
Method in brief: (§1)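 F508del/MF-HBE cells were preincubated 18–24 h at 37 °C in 20% human serum with corrector plus 18 μM tezacaftor and either 33 nM (concentration series) or 44 nM (1 μM single point) of the aminotrifluoromethyl triazatricyclic potentiator. Ussing chamber, Vhold=0 mV, 37 °C; forskolin 20 μM stimulation, CFTR ISC taken as inhibitor-cocktail-sensitive current.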

[3] = biological target: T1, CFTR (F508del/MF-HBE cells); experiment: Ussing chamber assay of CFTR-mediated short-circuit currents, Assay B (0.00001 μM to 25 μM, 12 concentrations); format: cell-based; conditions: with 33 nM potentiator and 18 μM Tezacaftor, 20% human serum; for Emax: 18-24 hours, read-out: B Max activity (%)
Method in brief: as §1

[4] = biological target: T1, CFTR (F508del/MF-HBE cells); experiment: Ussing chamber assay of CFTR-mediated short-circuit currents, Assay D (single concentration of 1 μM); format: cell-based; conditions: with 44 nM potentiator and 18 μM Tezacaftor, 18-24 hours, 20% human serum
Method in brief: as §1

[5] = biological target: T1, CFTR (F508del/MF-HBE cells); experiment: Ussing chamber assay of CFTR-mediated short-circuit currents, Assay C (0.026 μM to 25 μM, 6 concentrations); format: cell-based; conditions: with 33 nM potentiator and 18 μM Tezacaftor, 20% human serum
Method in brief: as §1

Compound | Emax [2] [%] | EC50 [2] [nM] | Emax [3] [%] | EC50 [3] [nM] | other results
Cc1cccc(C)c1-c1cc2nc(n1)NS(=O)(=O)c1cccc(c1)C(=O)N(Cc1cnc3oc(C4CC4)cc3n1)[C@H](COC(C)C)CO2 [Compound I-23, (11R)-12-[(6-cyclopropylfuro[2,3-b]pyrazin-2-yl)methyl]-6-(2,6-dimethylphenyl)-11-(isopropoxymethyl)-2,2-dioxo-9-oxa-2λ^6-thia-3,5,12,19-tetrazatricyclo[12.3.1.14,8]nonadeca-1(18),4(19),5,7,14,16-hexaen-13-one] | > 60 | < 1000 | > 60 | 1000 to 3000 | ring closure, yield after HPLC ([1]; from Cc1cccc(C)c1-c1cc(OC[C@@H](COC(C)C)NCc2cnc3oc(C4CC4)cc3n2)nc(NS(=O)(=O)c2cccc(C(=O)O)c2)n1, 40.6 mM, 14.0 h): 52%
Cc1cccc(C)c1-c1cc2nc(n1)NS(=O)(=O)c1cccc(c1)C(=O)N(Cc1cnc3nc(C(C)C)n(C)c3n1)[C@H](CC13CC(C1)C3)CO2 [Compound I-88, (11R)-11-(1-bicyclo[1.1.1]pentanylmethyl)-6-(2,6-dimethylphenyl)-12-[(2-isopropyl-3-methyl-imidazo[4,5-b]pyrazin-5-yl)methyl]-2,2-dioxo-9-oxa-2λ^6-thia-3,5,12,19-tetrazatricyclo[12.3.1.14,8]nonadeca-1(18),4(19),5,7,14,16-hexaen-13-one] | > 60 | < 1000 | > 60 | < 1000 | ring closure, yield after HPLC ([1]; from Cc1cccc(C)c1-c1cc(OC[C@@H](CC23CC(C2)C3)NCc2cnc3nc(C(C)C)n(C)c3n2)nc(NS(=O)(=O)c2cccc(C(=O)O)c2)n1, 11.0 mM, 16.5 h): 66%
Cc1cccc(C)c1-c1cc2nc(n1)NS(=O)(=O)c1cccc(c1)C(=O)N(Cc1cncc(Cl)n1)[C@H](CCC(C)(C)C)CO2 | – | – | – | – | ring closure, isolated yield (from Cc1cccc(C)c1-c1cc(OC[C@@H](CCC(C)(C)C)NCc2cncc(Cl)n2)nc(NS(=O)(=O)c2cccc(C(=O)O)c2)n1, amide bond, 13-membered ring, CDMT/NMM, DMF, 15.0 mM, 18.0 h): 48%
Cc1cccc(C)c1-c1cc2nc(n1)NS(=O)(=O)c1cccc(c1)C(=O)N(Cc1cnc3oc(C4CC4)cc3n1)C(CC1CC(C)(C)C1)CO2 (stereo not drawn) | – | – | – | – | ring closure, isolated yield (from Cc1cccc(C)c1-c1cc(OCC(CC2CC(C)(C)C2)NCc2cnc3oc(C4CC4)cc3n2)nc(NS(=O)(=O)c2cccc(C(=O)O)c2)n1, amide bond, 13-membered ring, CDMT/NMM, DMF, 15.9 mM, 25.0 h): 75%
Cc1cccc(C)c1-c1cc2nc(n1)NS(=O)(=O)c1cccc(c1)C(=O)N(Cc1cnc3oc(C4(C)CC4)cc3n1)[C@H](CC1(C)CC1)CO2 [Compound I-96, (11R)-6-(2,6-dimethylphenyl)-12-[[6-(1-methylcyclopropyl)furo[2,3-b]pyrazin-2-yl]methyl]-11-[(1-methylcyclopropyl)methyl]-2,2-dioxo-9-oxa-2λ^6-thia-3,5,12,19-tetrazatricyclo[12.3.1.14,8]nonadeca-1(18),4(19),5,7,14,16-hexaen-13-one] | > 60 | < 1000 | > 60 | 1000 to 3000 | ring closure, yield after HPLC ([1]; from Cc1cccc(C)c1-c1cc(OC[C@@H](CC2(C)CC2)NCc2cnc3oc(C4(C)CC4)cc3n2)nc(NS(=O)(=O)c2cccc(C(=O)O)c2)n1, 50.0 mM, 6.0 h): 63%
Cc1cccc(C)c1-c1cc2nc(n1)NS(=O)(=O)c1cccc(c1)C(=O)N(Cc1cnc3oc(C4CC4)cc3n1)[C@H](CC13CC(C1)C3)CO2 [Compound I-52, (11R)-11-(1-bicyclo[1.1.1]pentanylmethyl)-12-[(6-cyclopropylfuro[2,3-b]pyrazin-2-yl)methyl]-6-(2,6-dimethylphenyl)-2,2-dioxo-9-oxa-2λ^6-thia-3,5,12,19-tetrazatricyclo[12.3.1.14,8]nonadeca-1(18),4(19),5,7,14,16-hexaen-13-one] | > 60 | < 1000 | > 60 | 1000 to 3000 | ring closure, yield after HPLC ([1]; from Cc1cccc(C)c1-c1cc(OC[C@@H](CC23CC(C2)C3)NCc2cnc3oc(C4CC4)cc3n2)nc(NS(=O)(=O)c2cccc(C(=O)O)c2)n1, 12.4 mM, 18.0 h): 66%
CC1(C)CCC=CC[C@](OCc2ccccc2)(C(F)(F)F)C2=NN=C(O2)c2nc(c(C(F)(F)F)cc2[N+](=O)[O-])N1 (mixture of isomers) | – | – | – | – | ring closure, isolated yield (from C=CCCC(C)(C)Nc1nc(-c2nnc([C@@](CC=C)(OCc3ccccc3)C(F)(F)F)o2)c([N+](=O)[O-])cc1C(F)(F)F, rcm bond, 14-membered ring, Zhan catalyst-1B (20 mol%), DCE, 9.26 mM, 72.0 °C, 2.47 h): 40%
Cc1cccc(C)c1-c1cc2nc(n1)NS(=O)(=O)c1cccc(c1)C(=O)N(Cc1cnc3oc(C(C)(C)C)cc3n1)[C@H](CC1(C)CC1)CO2 [Compound I-98, (11R)-12-[(6-tert-butylfuro[2,3-b]pyrazin-2-yl)methyl]-6-(2,6-dimethylphenyl)-11-[(1-methylcyclopropyl)methyl]-2,2-dioxo-9-oxa-2λ^6-thia-3,5,12,19-tetrazatricyclo[12.3.1.14,8]nonadeca-1(18),4(19),5,7,14,16-hexaen-13-one] | > 60 | < 1000 | > 60 | 1000 to 3000 | ring closure, yield after HPLC ([1]; from Cc1cccc(C)c1-c1cc(OC[C@@H](CC2(C)CC2)NCc2cnc3oc(C(C)(C)C)cc3n2)nc(NS(=O)(=O)c2cccc(C(=O)O)c2)n1, 44.5 mM, 16.0 h): 55%
Cc1cccc(C)c1-c1cc2nc(n1)NS(=O)(=O)c1cccc(c1)C(=O)N(Cc1cnc3oc(C(C)(C)C)cc3n1)[C@H](CC13CC(C1)C3)CO2 [Compound I-99, (11R)-11-(1-bicyclo[1.1.1]pentanylmethyl)-12-[(6-tert-butylfuro[2,3-b]pyrazin-2-yl)methyl]-6-(2,6-dimethylphenyl)-2,2-dioxo-9-oxa-2λ^6-thia-3,5,12,19-tetrazatricyclo[12.3.1.14,8]nonadeca-1(18),4(19),5,7,14,16-hexaen-13-one] | > 60 | < 1000 | > 60 | < 1000 | ring closure, yield after HPLC ([1]; from Cc1cccc(C)c1-c1cc(OC[C@@H](CC23CC(C2)C3)NCc2cnc3oc(C(C)(C)C)cc3n2)nc(NS(=O)(=O)c2cccc(C(=O)O)c2)n1, 29.9 mM, 16.0 h): 54%; D activity at 1 μM (%) [4]: +++ (+++ is >60%)
Cc1cccc(C)c1-c1cc2nc(n1)NS(=O)(=O)c1cccc(c1)C(=O)N(Cc1cnc3oc(C4CC4)cc3n1)C(C1(C(C)C)CC1)CO2 (stereo not drawn) | – | – | – | – | ring closure, isolated yield (from Cc1cccc(C)c1-c1cc(OCC(NCc2cnc3oc(C4CC4)cc3n2)C2(C(C)C)CC2)nc(NS(=O)(=O)c2cccc(C(=O)O)c2)n1, amide bond, 13-membered ring, CDMT/NMM, DMF, 25.0 °C): 41%
Cc1cccc(C)c1-c1nc2nc(c1C)OC[C@@H](CC(C)(C)C)N(Cc1cnc3cc(C(C)(C)C)n(C)c3n1)C(=O)c1cccc(c1)S(=O)(=O)N2 [Compound I-188, (11R)-12-[(6-tert-Butyl-5-methyl-pyrrolo[2,3-b]pyrazin-3-yl)methyl]-6-(2,6-dimethylphenyl)-11-(2,2-dimethylpropyl)-7-methyl-2,2-dioxo-9-oxa-2λ^6-thia-3,5,12,19-tetrazatricyclo[12.3.1.14,8]nonadeca-1(18),4(19),5,7,14,16-hexaen-13-one] | – | – | > 60 | < 1000 | ring closure, yield after HPLC ([1]; from Cc1cccc(C)c1-c1nc(NS(=O)(=O)c2cccc(C(=O)O)c2)nc(OC[C@@H](CC(C)(C)C)NCc2cnc3cc(C(C)(C)C)n(C)c3n2)c1C, 19.8 mM, 4.0 h): 57%; Emax ([5]; 18-24 hours, read-out: C Max activity (%)): > 60%; EC50 [5]: < 1000 nM; D activity at 1 μM (%) [4]: +++ (+++ is >60%)
Cc1cccc(C)c1-c1cc2nc(n1)NS(=O)(=O)c1cccc(c1)C(=O)N(Cc1cnc3cn(C(C)C)nc3n1)[C@H](CC1(C)CC1)CO2 [Compound I-128, (11R)-6-(2,6-Dimethylphenyl)-12-[(2-isopropylpyrazolo[3,4-b]pyrazin-6-yl)methyl]-11-[(1-methylcyclopropyl)methyl]-2,2-dioxo-9-oxa-2λ^6-thia-3,5,12,19-tetrazatricyclo[12.3.1.14,8]nonadeca-1(18),4(19),5,7,14,16-hexaen-13-one] | – | – | > 60 | 3000 to 30000 | ring closure, yield after HPLC ([1]; from Cc1cccc(C)c1-c1cc(OC[C@@H](CC2(C)CC2)NCc2cnc3cn(C(C)C)nc3n2)nc(NS(=O)(=O)c2cccc(C(=O)O)c2)n1, 12.0 mM, 22.5 h): 38%
Cc1cccc(C)c1-c1cc2nc(n1)NS(=N)(=O)c1cccc(c1)C(=O)N(Cc1cnc3oc(C4CC4)cc3n1)[C@H](CC(C)(C)C)CO2 (stereo partly drawn) | – | – | – | – | ring closure, isolated yield (from 3-[[[4-[(2R)-2-[(6-Cyclopropylfuro[2,3-b]pyrazin-2-yl)methylamino]-4,4-dimethyl-pentoxy]-6-(2,6-dimethylphenyl)pyrimidin-2-yl]amino]sulfonimidoyl]benzoic acid (hydrochloride salt) (isomer B), amide bond, 13-membered ring, CDMT/NMM, DMF, 10.4 mM): 8%
